Test results as given in ChEMBL document CHEMBL2434873, “Synthesis of VS-105: A novel and potent vitamin D receptor agonist with reduced hypercalcemic effects” (Bioorg Med Chem Lett, 2013).
pEC50, pIC50: −log10 of the molar value.

How the values were obtained:
Rattus norvegicus [1] = experiment: Toxicity in 5/6 nephrectomized uremic Sprague-Dawley rat assessed as dose require to cause hypercalcemia administered 3 times per week for 12 days measured 24 hrs post last dose; type: organism-based; conditions: in vivo
Rattus norvegicus [2] = experiment: Agonist activity at VDR in 5/6 nephrectomized uremic Sprague-Dawley rat assessed as dose require to suppress serum PTH level administered 3 times per week for 12 days measured 24 hrs post last dose by ELISA; type: functional
[3] = Therapeutic index, ratio for induction of hypercalcemia over suppression of serum PTH level in 5/6 nephrectomized uremic Sprague-Dawley rat; type: organism-based; conditions: read-out: TI
HL-60 = experiment: Induction of human HL60 cell differentiation after 4 days by NBT reduction assay; type: functional, cell-based; conditions: HL-60, 96 h
Vitamin D3 receptor [4] = biological target: T1, Vitamin D3 receptor (Homo sapiens, UniProt P11473); experiment: Agonist activity at VDR ligand binding domain (unknown origin) by reporter gene assay
T1 sequence (P11473 whole entry): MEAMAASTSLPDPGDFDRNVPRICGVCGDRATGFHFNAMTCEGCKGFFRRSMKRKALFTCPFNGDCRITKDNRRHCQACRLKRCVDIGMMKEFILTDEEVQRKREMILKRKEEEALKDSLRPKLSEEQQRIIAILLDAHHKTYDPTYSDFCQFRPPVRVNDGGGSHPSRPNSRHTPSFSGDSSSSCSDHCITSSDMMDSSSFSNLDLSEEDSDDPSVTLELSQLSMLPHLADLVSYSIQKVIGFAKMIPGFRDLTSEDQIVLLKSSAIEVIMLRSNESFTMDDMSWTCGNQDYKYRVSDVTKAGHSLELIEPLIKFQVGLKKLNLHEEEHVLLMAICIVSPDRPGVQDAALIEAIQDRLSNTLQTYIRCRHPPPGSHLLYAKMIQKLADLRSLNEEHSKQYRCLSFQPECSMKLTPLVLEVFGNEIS

Vitamin D3 receptor [5] = biological target: T1, Vitamin D3 receptor; experiment: Binding affinity to VDR (unknown origin)

pEC50 (HL-60)	pEC50 (Vitamin D3 receptor [4])	pIC50 (Vitamin D3 receptor [5])	Structure (SMILES)	Activity (Rattus norvegicus [1]) [µg/kg]	Activity (Rattus norvegicus [2]) [µg/kg]	selectivity ratio [3]
7.90	–	–	C[C@H](/C=C/[C@H](C)C(C)(C)O)[C@H]1CC[C@H]2/C(=C/C=C3C[C@@H](O)C[C@H](O)C3)CCC[C@]12C [PARICALCITOL]	> 0.08	0.02	4
7.93	> 10.00	7.42	C=C1[C@H](O)CC(=C/C=C2\CCC[C@]3(C)[C@@H]([C@@H](C)OC[C@H](C)C(C)(C)O)CC[C@@H]23)C[C@H]1O	> 0.6	0.004	> 50
